In assay [1] the test system is rats after spinal nerve ligature. Description: Mono-neuropathic pain after spinal nerve ligature (Chung model), electronic von Frey. Format: in vivo, rat. How it is done: Sprague Dawley rats (140-160 g body weight) were used for the following animal models. Sprague Dawley rats (140-160 g body weight) from a commercial breeder (Janvier, Genest St. Isle, France) were used. The animals were kept under standard conditions: light-dark rhythm (06:00 to 18:00 h light, 18:00 to 06:00 h dark), room temperature 19-23° C., relative air humidity 45-65%, air exchange 19 times per hour, air movement <0.2 m/s, free choice of tap water and standard feed, Macrolon Type 4 cages with 5 animals per cage. The solutions of the test substances and/or vehicles (10% […], 5% Cremophor EL, 5% glucose) were administered intravenously.
Under pentobarbital narcosis (Narcoren®, […] i.p., Merial GmbH, Hallbergmoos, Germany), the L5, L6 spinal nerves were firmly bound. The left L5 and L6 spinal nerves were exposed by removing a piece of paravertebral muscle and a portion of the left spinal process of the L5 lumbar vertebral body. The L5 and L6 spinal nerves were carefully isolated and bound with a firm ligature (NC silk, black, USP 5/0, metric 1, Braun Melsungen AG, Melsungen, Germany) (Kim and Chung, An experimental model for peripheral neuropathy produced by segmental spinal nerve ligature in the rat, Pain, 50, 1992, 355-363). After haemostasis was determined, the muscle and adjacent tissue were sutured and the wound closed by metal clamps. After a one-week recovery period the animals were placed in cages with a wire base closed to the top by a plastic hood for measurement of the mechanical allodynia. The animals were kept in this cage until their explorative behaviour had decreased.
The threshold for the tactile allodynia was measured by means of an electronic von Frey anaesthesiometer (Somedic AB, Malmö, Sweden). The animals were randomly divided into groups of 10 animals. Each group received an individual dose of test substance or vehicle and the measurements were conducted 0.5 h before application and at various times after intravenous administration. Both the ipsi- and the contra-lateral rear paw were tested. The median of five stimulations gave a measured data point. The data were determined as % maximum possible effect (% MPE) from the pre-tests of the Chung individual animals (=0% MPE) and the test values of an independent sham control group (=100% MPE). The effect of the test substance and the vehicle was calculated for each measurement time (i.e. 0.5, 1 and 3 h after application) as inter-individual % MPE value. […] The corresponding threshold values are given in gram (mean±SEM).

In assay [2] the target is T1, human recombinant μ-opioid receptor (Homo sapiens, UniProt P35372).
T1 construct: expressed in transfected cells; host or cells: CHO-K1 cells (membrane preparation)
Description: Ki value at the μ-opioid receptor (Experiment 4). In kind it is binding.

The target of assay [3] is T2, vanilloid receptor 1 (VR1/TRPV1) (Homo sapiens, UniProt Q8NER1).
T2 construct: expressed in transfected cells; host or cells: CHO K1 cells (ECACC), stably transfected
Description: FLIPR capsaicin assay. In kind it is cell-based, human or rat. The source says: (§1) The agonist or antagonist effect of substances can be determined at the vanilloid receptor 1 (VR1/TRPV1) of the human and rat species with the assay described below. Accordingly, the Ca^2+ influx through the channel is quantified by means of a Ca^2+-sensitive dye (Fluo-4, Molecular Probes Europe BV, Leiden, The Netherlands) in the fluorescent imaging plate reader (FLIPR, Molecular Devices, Sunnyvale, USA).
(§2) Chinese hamster ovary cells (CHO K1 cells, ECACC, England) are stably transfected with human or rat VR1 cDNA. For functional studies these cells are plated onto poly-D-lysine-coated black 96-hole plates with a clear base (BD Biosciences, Heidelberg, Germany) in a density of 25 000 cells/cavity. The cells are incubated overnight at 37° C. with 5% CO2 in culture medium (nutrient mixture Ham's F12, Gibco Invitrogen GmbH, Karlsruhe, Germany) with 10% vol. FBS (foetal bovine serum, Gibco Invitrogen GmbH, Karlsruhe, Germany) and 18 μg/ml of L-proline (Gibco Invitrogen GmbH, Karlsruhe, Germany). On the following day, the cells are laden with 2 μM Fluo-4 and 0.01% vol. Pluronic F127 (Molecular Probes Europe BV, Leiden, The Netherlands) in HBSS buffer (Hank's buffered saline solution, Gibco Invitrogen GmbH, Karlsruhe, Germany) for 30 min at 37° C. The plates are then washed 3 times in HBSS buffer and after further incubation for 15 minutes at room temperature are placed in the FLIPR for the Ca^2+ measurement. In this case, the Ca^2+-dependent fluorescence is measured before and after the addition of substances (λex=488 nm, λem=540 nm). Quantification occurs as a result of the measurement of the highest fluorescence intensity (FC, fluorescence counts) over time.
The FLIPR protocol consists of 2 substance additions. Test substances (10 μM) are firstly pipetted onto the cells and the Ca^2+ influx is compared to the control (capsaicin 10 μM). This gives the specification in % activation in relation to the Ca^2+ signal after adding 10 μM of capsaicin. After 5 minutes incubation 100 nM of capsaicin are applied and the influx of Ca^2+ likewise determined. Desensitising agonists and antagonists lead to a suppression of the Ca^2+ influx. Inhibition values [%] are calculated in comparison to the maximum achievable inhibition with a saturating concentration of […] or another reference antagonist. The test substance is added in different concentrations to determine the IC50 and functional Ki value ((f)Ki). Triple determinations (n=3) are conducted and these are repeated in at least one further independent experiment (N>=2). A capsaicin dose action curve is generated to incorporate the thus determined EC50 values into the associated (f)Ki determination. EC50/IC50 values are calculated using ‘Prism4’ software from GraphPad Software™ or with XLfit4™ (ID Business Solutions Ltd.). (f)Ki values are calculated in accordance with the modified Cheng-Prusoff equation (Cheng, Prusoff; Biochem. Pharmacol. 22, 3099-3108, 1973). Testing for non-specific inhibition of the fluorescence as a result of the substances is conducted by activating wild type CHO K1 cells incubated with the same test substances with ATP (10 μM final concentration).

The target in the next assay is T3, human VR1 (Homo sapiens, UniProt Q8NER1).
T3 construct: expressed in transfected cells; host or cells: CHO K1 cells (ECACC), stably transfected
Description: FLIPR pH assay. Format: cell-based. The following applies: for pIC50: human VR1-transfected CHO K1 cells, 60 mM MES, pH 4.95, read-out: IC50 (pH).
Description: as §1, §2
In the pH assay, HBSS that now contains 60 mM MES instead of capsaicin is applied to human VR1-transfected CHO K1 cells (adjusted pH value of the addition solution is 4.95). Percentage inhibition and IC50 values are raised and evaluated as already described for the capsaicin test.

The mark [4] stands for this setting: Oxycodone 2.5 mg/kg i.v. group, Control (pre-test 0.5 h before application).
Setting [5] is: Oxycodone 2.5 mg/kg i.v., 30 min.
Where [6] appears, read: Oxycodone 2.5 mg/kg i.v., 60 min.
The mark [7] stands for this setting: Oxycodone 2.5 mg/kg i.v., 180 min.
The mark [8] stands for this setting: Oxycodone 5 mg/kg i.v. group, Control (pre-test 0.5 h before application).
[9] abbreviates: Oxycodone 5 mg/kg i.v., 180 min.
The mark [10] stands for this setting: functional Ki, capsaicin 100 nM, VR1-transfected CHO K1 cells, modified Cheng-Prusoff, read-out: f(Ki) (VR1).
The mark [11] stands for this setting: read-out: % inhibition (pH assay).
Setting [12] is: AMG 517 2.5 mg/kg i.v. group, Control (pre-test 0.5 h before application).
Setting [13] is: AMG 517 2.5 mg/kg i.v., 180 min.

Structures are written as SMILES. pIC50, pKi: −log10 of the molar value. Like-named read-outs stand apart in the source and are kept apart here.

T2 sequence (Q8NER1 whole entry): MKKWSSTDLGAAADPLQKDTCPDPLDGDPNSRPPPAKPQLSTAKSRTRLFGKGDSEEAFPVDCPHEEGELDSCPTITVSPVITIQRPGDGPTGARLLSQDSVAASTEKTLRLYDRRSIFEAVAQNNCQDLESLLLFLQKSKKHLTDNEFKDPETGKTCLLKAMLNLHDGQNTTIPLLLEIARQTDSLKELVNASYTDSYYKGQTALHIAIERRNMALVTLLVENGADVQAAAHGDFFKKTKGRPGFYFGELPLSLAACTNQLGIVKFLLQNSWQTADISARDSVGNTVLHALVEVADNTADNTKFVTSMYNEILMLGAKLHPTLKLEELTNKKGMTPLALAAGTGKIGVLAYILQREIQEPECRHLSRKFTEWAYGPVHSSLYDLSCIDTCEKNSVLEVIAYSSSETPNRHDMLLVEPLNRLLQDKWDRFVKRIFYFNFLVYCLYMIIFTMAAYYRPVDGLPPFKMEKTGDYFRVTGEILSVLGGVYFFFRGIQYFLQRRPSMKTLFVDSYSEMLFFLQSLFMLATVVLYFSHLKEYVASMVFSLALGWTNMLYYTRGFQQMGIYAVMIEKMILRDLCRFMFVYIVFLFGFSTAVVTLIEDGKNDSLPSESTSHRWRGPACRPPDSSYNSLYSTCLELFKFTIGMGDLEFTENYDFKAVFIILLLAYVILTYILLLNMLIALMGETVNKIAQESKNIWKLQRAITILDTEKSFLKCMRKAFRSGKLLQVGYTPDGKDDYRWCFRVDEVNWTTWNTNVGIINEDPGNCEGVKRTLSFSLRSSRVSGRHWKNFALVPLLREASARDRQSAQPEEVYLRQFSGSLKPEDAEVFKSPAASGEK
T3 sequence (Q8NER1 whole entry): as above
T1 sequence (P35372 whole entry): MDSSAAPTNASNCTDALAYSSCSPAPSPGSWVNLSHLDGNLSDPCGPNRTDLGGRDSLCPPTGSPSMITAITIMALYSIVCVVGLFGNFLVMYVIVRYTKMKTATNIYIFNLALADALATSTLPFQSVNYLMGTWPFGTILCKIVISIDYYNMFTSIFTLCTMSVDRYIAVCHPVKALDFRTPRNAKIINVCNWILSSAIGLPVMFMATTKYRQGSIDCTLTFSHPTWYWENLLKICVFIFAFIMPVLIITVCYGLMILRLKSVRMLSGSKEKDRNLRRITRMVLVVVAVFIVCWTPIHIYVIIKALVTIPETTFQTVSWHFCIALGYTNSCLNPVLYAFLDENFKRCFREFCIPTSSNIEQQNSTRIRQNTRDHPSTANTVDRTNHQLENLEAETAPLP

In the case of `COc1ccc2c3c1O[C@H]1C(=O)CC[C@@]4(O)[C@@H](C2)N(C)CC[C@]314` [Oxycodone, oxycodone], the “pull-away threshold value, contra-lateral rear paw, mean” value was found to be 54.0 gram in assay [1] (setting [4]); 67.8 gram in assay [1] (setting [5]); 53.1 gram in assay [1] (setting [6]); 52.5 gram in assay [1] (setting [7]); 52.6 gram in assay [1] (setting [8]); 70.0 gram in assay [1] (Oxycodone 5 mg/kg i.v., 30 min). Also, the “pull-away threshold value, contra-lateral rear paw, mean” value in assay [1] (Oxycodone 5 mg/kg i.v., 60 min) was 56.4 gram; in assay [1] (setting [9]), 51.4 gram. The “pull-away threshold value, ipsi-lateral rear paw, mean” value is reported as 21.0 gram in assay [1] (setting [4]); 38.2 gram in assay [1] (setting [5]); 28.0 gram in assay [1] (setting [6]); 21.9 gram in assay [1] (setting [7]); 22.8 gram in assay [1] (setting [8]); 41.9 gram in assay [1] (Oxycodone 5 mg/kg i.v., 30 min). Moreover, the “pull-away threshold value, ipsi-lateral rear paw, mean” value in assay [1] (Oxycodone 5 mg/kg i.v., 60 min) turned out to be 32.1 gram; in assay [1] (setting [9]), 22.0 gram. The “efficacy (conclusion)” value in assay [1] (combination of two threshold doses of the same opioid, pull away increased on ipsi- and contra-lateral paw) is “additive antinociceptive efficacy”.
`CC(C(=O)NCc1ccc(C(F)(F)F)nc1N1CCC(c2cccs2)(N(C)C)CC1)c1ccc(NS(C)(=O)=O)c(F)c1` (stereo not shown) [[3], N-((2-(4-(dimethylamino)-4-(thiophen-2-yl)piperidin-1-yl)-6-(trifluoromethyl)pyridin-3-yl)methyl)-2-(3-fluoro-4-(methylsulfonamido)phenyl)propanamide]: the figures for the pKi in assay [2] and in assay [3] were 6.92 and 7.96, respectively. Further, at human VR1, the negative logarithm of the IC50 (pIC50) – broadly, the negative decadic logarithm of the IC50, by convention in mol/L – is 6.47.
For the compound `CC(C(=O)NCc1ccc(C(C)(C)C)nc1N1CCC(Cc2ccccc2)(N(C)C)CC1)c1ccc(NS(C)(=O)=O)c(F)c1` (stereo not shown) [[6], N-((2-(4-benzyl-4-(dimethylamino)piperidin-1-yl)-6-tert-butylpyridin-3-yl)methyl)-2-(3-fluoro-4-(methylsulfonamido)phenyl)propanamide], the negative logarithm of the Ki (pKi) (commonly the Ki on a negative log10 scale, so that one unit is a factor of ten) in assay [2] is 5.50; in assay [3], 8.59. In addition, the pIC50 at human VR1 was 5.87.
With `CC(C(=O)NCc1ccc(C(F)(F)F)nc1N1CCC(Cc2ccccc2)(N(C)C)CC1)c1ccc(NS(C)(=O)=O)c(F)c1` (stereo not shown) [[5], N-((2-(4-benzyl-4-(dimethylamino)piperidin-1-yl)-6-(trifluoromethyl)pyridin-3-yl)methyl)-2-(3-fluoro-4-(methylsulfonamido)phenyl)propanamide], the pKi was 6.15 in assay [2] and 8.20 in assay [3]. In addition, the negative-log IC50 (pIC50) at human VR1 is 6.95.
The matching figures for `CC(C(=O)NCc1ccc(C(C)(C)C)nc1N1CCC(c2ccccc2)(N(C)C)CC1)c1ccc(NS(C)(=O)=O)c(F)c1` (stereo not shown) [[2], N-((6-tert-butyl-2-(4-(dimethylamino)-4-phenylpiperidin-1-yl)pyridin-3-yl)methyl)-2-(3-fluoro-4-(methylsulfonamido)phenyl)propanamide]: 6.46, 8.43 and 6.43.
Consider `Cc1cc(C(C)C(=O)NCc2ccc(C(F)(F)F)cc2N2CCC(Cc3ccccc3)(N(C)C)CC2)ccc1NS(C)(=O)=O` (stereo not shown) [[8], N-(2-(4-benzyl-4-(dimethylamino)piperidin-1-yl)-4-(trifluoromethyl)benzyl)-2-(3-methyl-4-(methylsulfonamido)phenyl)propanamide], for which the negative logarithm of the Ki (pKi) in assay [2] was 7.66. Besides, the pKi in assay [3] (setting [10]) was 8.60. Further, at human VR1 (setting [11]), the inhibition (usually the share of the control response that was lost under treatment) at 1 µM came out at 19%, the inhibition at 5 µM stood at 36% and the inhibition at 10 µM was 58%.
As to `Cc1cc(C(C)C(=O)NCc2ccc(C(F)(F)F)cc2N2CCC(Cc3cccc(F)c3)(N(C)C)CC2)ccc1NS(C)(=O)=O` (stereo not shown) [[11], N-(2-(4-(dimethylamino)-4-(3-fluorobenzyl)piperidin-1-yl)-4-(trifluoromethyl)benzyl)-2-(3-methyl-4-(methylsulfonamido)phenyl)propanamide], in assay [2], the pKi is 7.30. For the same compound, the pKi in assay [3] (setting [10]) is 8.80. Besides, at human VR1 (setting [11]), the inhibition at 5 µM came to 35% and the inhibition at 10 µM turned out to be 38%.
Consider `CC(C(=O)NCc1ccc(C(F)(F)F)nc1N1CCC(Cc2cccc(F)c2)(N(C)C)CC1)c1ccc(NS(C)(=O)=O)c(F)c1` (stereo not shown) [[9], N-((2-(4-(dimethylamino)-4-(3-fluorobenzyl)piperidin-1-yl)-6-(trifluoromethyl)pyridin-3-yl)methyl)-2-(3-fluoro-4-(methylsulfonamido)phenyl)propanamide], for which the negative logarithm of the Ki (pKi) in assay [2] is 5.68; in assay [3], 8.62. The negative-log IC50 (pIC50) on human VR1 is 6.84.
On to `CC(=O)Nc1nc2c(Oc3cc(-c4ccc(C(F)(F)F)cc4)ncn3)cccc2s1` [AMG 517], for which the “pull-away threshold value, contra-lateral rear paw, mean” value was found to be 49.9 gram in assay [1] (setting [12]); 50.9 gram in assay [1] (AMG 517 2.5 mg/kg i.v., 30 min); 49.6 gram in assay [1] (AMG 517 2.5 mg/kg i.v., 60 min); 51.7 gram in assay [1] (setting [13]). Moreover, the “pull-away threshold value, ipsi-lateral rear paw, mean” value in assay [1] (setting [12]) turned out to be 20.6 gram; in assay [1] (AMG 517 2.5 mg/kg i.v., 30 min), 29.2 gram; in assay [1] (AMG 517 2.5 mg/kg i.v., 60 min) it was 21.1 gram; in assay [1] (setting [13]), 20.7 gram.
